In ChEMBL document CHEMBL1909046, “DrugMatrix in vitro pharmacology data”:

What was measured:
[1] = target: T1, Alpha-2A adrenergic receptor (Homo sapiens, UniProt P08913); assay type: cell membranes, Sf9, Membrane; further: in other assays of this panel Not Active means under 50% inhibition at 10 µM
T1 sequence (P08913 whole entry): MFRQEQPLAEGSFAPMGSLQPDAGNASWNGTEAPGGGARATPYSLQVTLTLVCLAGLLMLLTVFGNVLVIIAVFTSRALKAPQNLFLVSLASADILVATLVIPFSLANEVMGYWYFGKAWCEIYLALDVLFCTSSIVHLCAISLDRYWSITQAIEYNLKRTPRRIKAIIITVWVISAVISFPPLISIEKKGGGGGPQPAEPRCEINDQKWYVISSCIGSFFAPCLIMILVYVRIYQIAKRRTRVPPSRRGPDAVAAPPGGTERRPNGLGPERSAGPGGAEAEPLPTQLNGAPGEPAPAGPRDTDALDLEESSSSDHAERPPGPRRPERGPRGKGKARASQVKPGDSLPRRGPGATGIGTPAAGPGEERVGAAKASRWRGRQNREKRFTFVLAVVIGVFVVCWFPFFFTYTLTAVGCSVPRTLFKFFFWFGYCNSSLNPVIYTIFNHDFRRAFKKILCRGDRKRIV

[2] = target: Beta-2 adrenergic receptor (Homo sapiens, UniProt P07550); assay: DRUGMATRIX: Adrenergic beta2 radioligand binding (ligand: [3H] CGP-12177); assay type: cell membranes, CHO, Membrane; conditions: cho; Not Active = under 50% inhibition at 10 µM
[3] = DRUGMATRIX: ATPase, Na+/K+ enzyme inhibition (substrate: ATP); assay type: tissue-based, Sus scrofa, Heart; conditions: Not Active = under 50% inhibition at 10 µM
B2 bradykinin receptor = target: T2, B2 bradykinin receptor (Homo sapiens, UniProt P30411); assay type: cell membranes, Membrane; conditions: chem-1; further: in other assays of this panel Not Active means under 50% inhibition at 10 µM
T2 sequence (P30411 whole entry): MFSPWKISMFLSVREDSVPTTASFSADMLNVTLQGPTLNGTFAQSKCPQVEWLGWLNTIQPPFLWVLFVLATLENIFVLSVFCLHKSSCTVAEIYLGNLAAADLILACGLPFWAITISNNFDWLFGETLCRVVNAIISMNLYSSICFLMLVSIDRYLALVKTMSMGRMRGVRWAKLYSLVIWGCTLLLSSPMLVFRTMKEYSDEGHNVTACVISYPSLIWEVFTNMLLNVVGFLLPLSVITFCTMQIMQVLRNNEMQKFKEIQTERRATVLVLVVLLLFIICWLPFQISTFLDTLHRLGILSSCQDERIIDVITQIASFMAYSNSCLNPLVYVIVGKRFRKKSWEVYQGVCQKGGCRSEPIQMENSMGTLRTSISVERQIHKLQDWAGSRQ

Carbonic anhydrase 2 = Carbonic anhydrase 2 (Homo sapiens, UniProt P00918); assay: DRUGMATRIX: Carbonic Anhydrase II enzyme inhibition (substrate: 4-Nitrophenyl acetate (4-NPA)); assay type: tissue-based; conditions: erythrocyte; Not Active = under 50% inhibition at 10 µM
[4] = target: C-C chemokine receptor type 5 (Homo sapiens, UniProt P51681); assay type: cell membranes, Membrane; conditions: hek293; further: in other assays of this panel Not Active means under 50% inhibition at 10 µM
D(1A) dopamine receptor = D(1A) dopamine receptor (Homo sapiens, UniProt P21728); assay: DRUGMATRIX: Dopamine D1 radioligand binding (ligand: [3H] SCH-23390); assay type: cell membranes, CHO, Membrane; conditions: cho; Not Active = under 50% inhibition at 10 µM
[5] = target: T3, 3-hydroxy-3-methylglutaryl-coenzyme A reductase (Homo sapiens, UniProt P04035); parameters: species or system Escherichia coli;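 further: enzyme inhibition assay of HMG-CoA reductase using radiolabeled [14C]HMG-CoA as substrate; in other assays of this panel Not Active means under 50% inhibition at 10 µM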
T3 sequence (P04035 whole entry): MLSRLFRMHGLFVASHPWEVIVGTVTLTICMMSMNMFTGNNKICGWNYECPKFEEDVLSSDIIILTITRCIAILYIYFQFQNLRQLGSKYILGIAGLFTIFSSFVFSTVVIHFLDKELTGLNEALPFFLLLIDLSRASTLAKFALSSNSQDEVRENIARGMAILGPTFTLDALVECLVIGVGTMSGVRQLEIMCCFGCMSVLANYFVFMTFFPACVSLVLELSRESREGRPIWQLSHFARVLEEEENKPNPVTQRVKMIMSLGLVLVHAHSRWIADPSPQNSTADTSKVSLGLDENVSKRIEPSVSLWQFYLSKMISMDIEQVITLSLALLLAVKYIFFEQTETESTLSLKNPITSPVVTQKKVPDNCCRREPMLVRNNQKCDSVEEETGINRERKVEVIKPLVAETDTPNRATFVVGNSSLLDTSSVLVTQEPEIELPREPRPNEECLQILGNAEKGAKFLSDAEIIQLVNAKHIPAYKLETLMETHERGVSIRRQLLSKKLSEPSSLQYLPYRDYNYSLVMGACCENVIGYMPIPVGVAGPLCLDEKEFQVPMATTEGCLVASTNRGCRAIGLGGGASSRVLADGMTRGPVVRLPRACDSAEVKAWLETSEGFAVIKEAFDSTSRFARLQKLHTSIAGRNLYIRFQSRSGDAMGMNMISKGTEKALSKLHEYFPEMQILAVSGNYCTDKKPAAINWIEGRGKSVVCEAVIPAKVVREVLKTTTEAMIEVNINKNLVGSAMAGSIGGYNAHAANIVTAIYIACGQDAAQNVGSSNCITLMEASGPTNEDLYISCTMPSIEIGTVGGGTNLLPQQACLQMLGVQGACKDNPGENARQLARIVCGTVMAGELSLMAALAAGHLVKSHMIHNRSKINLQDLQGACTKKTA

[6] = target: Protein kinase C alpha type (Homo sapiens, UniProt P17252); assay type: cell-based; conditions: sf9

Sequence of C-C chemokine receptor type 5 (P51681 whole entry): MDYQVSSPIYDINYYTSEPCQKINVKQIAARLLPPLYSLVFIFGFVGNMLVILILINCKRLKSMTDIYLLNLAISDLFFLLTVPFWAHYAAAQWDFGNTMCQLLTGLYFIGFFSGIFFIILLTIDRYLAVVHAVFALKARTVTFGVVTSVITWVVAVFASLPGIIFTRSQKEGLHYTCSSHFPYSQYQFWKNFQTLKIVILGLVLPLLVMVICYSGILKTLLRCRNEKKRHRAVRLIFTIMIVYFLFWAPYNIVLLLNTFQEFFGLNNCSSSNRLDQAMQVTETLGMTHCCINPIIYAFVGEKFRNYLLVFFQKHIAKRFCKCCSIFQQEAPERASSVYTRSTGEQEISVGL
Sequence of D(1A) dopamine receptor (P21728 whole entry): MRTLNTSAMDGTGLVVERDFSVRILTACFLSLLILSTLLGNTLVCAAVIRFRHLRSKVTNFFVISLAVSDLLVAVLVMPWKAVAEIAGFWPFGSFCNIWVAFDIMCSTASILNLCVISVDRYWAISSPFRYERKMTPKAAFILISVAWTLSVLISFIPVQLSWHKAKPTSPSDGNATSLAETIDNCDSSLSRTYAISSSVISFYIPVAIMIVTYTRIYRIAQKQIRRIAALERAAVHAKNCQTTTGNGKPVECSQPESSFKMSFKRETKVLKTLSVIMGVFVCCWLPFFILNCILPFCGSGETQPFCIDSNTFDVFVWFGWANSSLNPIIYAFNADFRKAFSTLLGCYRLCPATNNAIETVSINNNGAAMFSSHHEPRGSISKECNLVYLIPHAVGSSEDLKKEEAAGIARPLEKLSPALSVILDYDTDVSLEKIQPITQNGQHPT
Sequence of Beta-2 adrenergic receptor (P07550 whole entry): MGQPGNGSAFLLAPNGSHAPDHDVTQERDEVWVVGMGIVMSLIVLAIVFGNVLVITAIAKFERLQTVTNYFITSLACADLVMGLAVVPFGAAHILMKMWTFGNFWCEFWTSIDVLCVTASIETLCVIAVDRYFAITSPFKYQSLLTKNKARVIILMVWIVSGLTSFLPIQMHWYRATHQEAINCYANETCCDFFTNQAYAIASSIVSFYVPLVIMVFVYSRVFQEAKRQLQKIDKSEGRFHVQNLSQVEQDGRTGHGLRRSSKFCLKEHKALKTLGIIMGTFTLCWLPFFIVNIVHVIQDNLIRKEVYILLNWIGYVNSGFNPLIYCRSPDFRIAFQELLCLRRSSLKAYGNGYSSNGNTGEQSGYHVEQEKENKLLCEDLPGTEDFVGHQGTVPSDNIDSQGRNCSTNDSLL

| Structure (SMILES) | IC50 ([1]; sf9) | IC50 [2] | IC50 [3] | Ki [3] | IC50 (B2 bradykinin receptor) | IC50 (Carbonic anhydrase 2) | IC50 [4] | IC50 (D(1A) dopamine receptor) | IC50 [5] | IC50 [6] | Ki [2] | IC50 ([1]; read-out: IC50) [µM] | Ki ([1]; read-out: Ki) [µM] |
| --- | --- | --- | --- | --- | --- | --- | --- | --- | --- | --- | --- | --- | --- |
| O.O.O.O.O.O.[Cl-].[Cl-].[Sr+2] [STRONTIUM CHLORIDE HEXAHYDRATE] | Not Active | Not Active | Not Active | Not Active | Not Active | Not Active | Not Active | Not Active | Not Active | Not Active |  |  |  |
| CC(C)Oc1ccc2c(=O)c(-c3ccccc3)coc2c1 [IPRIFLAVONE] | Not Active |  | Not Active | Not Active | Not Active | Not Active | Not Active | Not Active | Not Active | Not Active | Not Active |  |  |
| COc1cc2nc(N3CCN(C(=O)C4CCCO4)CC3)nc(N)c2cc1OC (stereo unspecified) [TERAZOSIN] |  | Not Active | Not Active | Not Active | Not Active | Not Active | Not Active | Not Active | Not Active | Not Active |  | 13.8 | 5.19 |
| C[C@H]1C[C@@H]2[C@H]([C@@H](O)C[C@@]3(C)[C@H]2CC[C@]3(O)C(=O)CO)[C@@]2(C)C=CC(=O)C=C12 [METHYLPREDNISOLONE] | Not Active | Not Active | Not Active | Not Active | Not Active | Not Active | Not Active | Not Active | Not Active | Not Active |  |  |  |
| NC1CCN(c2nc3c(cc2F)c(=O)c(C(=O)O)cn3-c2ccc(F)cc2F)C1 (stereo unspecified) [TOSUFLOXACIN] | Not Active | Not Active | Not Active | Not Active | Not Active | Not Active | Not Active | Not Active | Not Active | Not Active |  |  |  |
| Cc1c(C)c2c(c(C)c1O)CCC(C)(CN1CCN(c3cc(N4CCCC4)nc(N4CCCC4)n3)CC1)O2 (stereo unspecified) | Not Active | Not Active | Not Active | Not Active | Not Active | Not Active | Not Active | Not Active | Not Active | Not Active |  |  |  |
| O=C(O)c1cn(-c2ccc(F)cc2)c2cc(N3CCNCC3)c(F)cc2c1=O [SARAFLOXACIN] | Not Active | Not Active | Not Active | Not Active | Not Active | Not Active | Not Active | Not Active | Not Active | Not Active |  |  |  |
| Nc1cc(N2CCCCC2)nc(N)[n+]1[O-] [MINOXIDIL] | Not Active | Not Active | Not Active | Not Active | Not Active | Not Active | Not Active | Not Active | Not Active | Not Active |  |  |  |
| CS(=O)(=O)c1ccc([C@@H](O)[C@@H](CO)NC(=O)C(Cl)Cl)cc1 [THIAMPHENICOL] | Not Active | Not Active | Not Active | Not Active | Not Active | Not Active | Not Active | Not Active | Not Active | Not Active |  |  |  |
| CCN(CC)CC(=O)Nc1c(C)cccc1C [LIDOCAINE] | Not Active | Not Active | Not Active | Not Active | Not Active | Not Active | Not Active | Not Active | Not Active | Not Active |  |  |  |
| CC(c1cc2ccccc2s1)N(O)C(N)=O (stereo unspecified) [ZILEUTON] | Not Active | Not Active | Not Active | Not Active | Not Active | Not Active | Not Active | Not Active | Not Active | Not Active |  |  |  |
| CCCCNc1ccc(C(=O)OCCN(C)C)cc1 [TETRACAINE] | Not Active | Not Active | Not Active | Not Active | Not Active | Not Active | Not Active | Not Active | Not Active | Not Active |  |  |  |
